Values quoted from earlier work, collected in patent US20060078955A1, “Method for retrieving delta9-THC from oral fluid” (Lin-Zhi International, priority 2004, published 2006).

For `CCCCCc1cc(O)c2c(c1)OC(C)(C)[C@@H]1CCC(C)=C[C@@H]21` [Δ^9-THC, Δ^9-tetrahydrocannabinol], the aqueous solubility (Jarho et al.) is given as 1 to 2 µg/mL.
In the case of “sulfobutyl-ether-β-cyclodextrin [Captisol]”, the intrinsic aqueous solubility (hepta-substituted preparation) is given as > 50 % w/v.
